Assay results published in US7304083B2, “2-iminoimidazole derivatives (2)” (Eisai R&D Management Co., Ltd., priority 2001, dated 2007).
Structures can show the parent of a compound that is named as a salt.

Columns and labels:
[1] = biological target: T1, PAR1 thrombin receptor (Homo sapiens, UniProt P25116); assay: Receptor binding assay ([3H] high affinity TRAP, platelet membrane); details: 25 nM [3H] high affinity TRAP, 37° C. for 1 hour, read-out: RBA IC50
T1 construct: centrifuged at 40,000 g for 60 minutes to yield platelet membrane; from tissue; host or cells: platelet membrane prepared from platelet rich plasma of a healthy adult donor
T1 sequence (P25116 22-425): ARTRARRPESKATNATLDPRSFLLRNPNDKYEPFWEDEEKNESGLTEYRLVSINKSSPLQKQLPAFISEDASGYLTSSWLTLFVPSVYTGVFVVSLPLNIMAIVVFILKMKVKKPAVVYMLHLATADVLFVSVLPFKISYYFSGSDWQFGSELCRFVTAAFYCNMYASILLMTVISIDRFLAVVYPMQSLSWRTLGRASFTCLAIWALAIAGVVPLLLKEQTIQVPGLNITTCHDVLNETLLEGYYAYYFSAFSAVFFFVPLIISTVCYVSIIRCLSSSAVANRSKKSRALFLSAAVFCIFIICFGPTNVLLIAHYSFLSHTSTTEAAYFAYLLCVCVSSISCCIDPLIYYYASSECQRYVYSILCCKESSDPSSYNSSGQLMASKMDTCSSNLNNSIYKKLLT
Description: Blood was sampled from a healthy adult who had taken no drugs for one week, and 3.8% citric acid (a ratio of 1:9 with respect to the blood) was added as an anticoagulant. The mixture was then centrifuged at 100 g for 10 minutes at room temperature to yield platelet rich plasma (PRP). The platelet precipitate obtained by centrifuging the PRP was homogenized with a Dounce homogenizer, and then centrifuged at 40,000 g for 60 minutes to yield platelet membrane. The platelet membrane was suspended in a solution prepared by adding DMSO (dimethyl sulfoxide) at 1% concentration to Buffer 1: a 50 mM Tris-HCl buffer containing 10 mM MgCl2 and 1 mM EGTA (ethylene glycol tetraacetic acid), and the suspension was stored at −80° C. Bovine albumin and DMSO were added to Buffer 1 at 0.1% and 20%, respectively, to make a preparation solution for the test compound. […] Next, 30 μl of liquid scintillator was added for measurement of the radioactivity of the plate using a Top Counter (Packard), the value of the radioactivity in the presence of the test compound minus non-specific binding portion was divided by the specific binding value (the value of the binding in the absence of the compound minus the non-specific binding portion) to determine the binding ratio, from which the IC50 value was calculated. […]

[2] = system: platelet rich plasma (PRP); assay: Inhibitory effects on platelet aggregation using platelet rich plasma (thrombin-induced); type: cell-based; details: Homo sapiens, 0.1 h, aggregation initiated with thrombin 0.5–1.5 units/ml, area under aggregation curve over 6 minutes, read-out: Thr IC50
Description: [Inhibitory Effects on Platelet Aggregation Using Platelet Rich Plasma]
Blood was sampled from a healthy adult who had taken no drugs for one week, and 3.8% citric acid (a ratio of 1:9 with respect to the blood) was added as an anticoagulant. The mixture was then centrifuged at 100 g for 10 minutes at room temperature to yield platelet rich plasma (PRP). The PRP-removed blood was further centrifuged at 1000 g for 10 minutes to yield platelet poor plasma (PPP). The number of platelet was counted using a multi-parameter automatic hemocyte counter (K4500, Sysmex), and the PRP was diluted to approximately 300,000/μl with the PPP. The platelet aggregation activity was determined in the following manner using an Aggregometer (MC Medical). […] After addition of thrombin, the aggregation reaction was examined for 6 minutes and the areas under the aggregation curves were compared to determine the inhibition ratio, from which the IC50 value was calculated.

[3] = system: Vascular smooth muscle cells (rSMC); assay: Rat smooth muscle cell proliferation assay (thrombin-stimulated, MTT); type: cell-based; details: 48 h; male SD rat aorta rSMC, thrombin 0.1 unit/ml, 2 days, MTT OD 590 nm; read-out: Rat SMC IC50
Description: [Rat Smooth Muscle Cell Proliferation Assay]
Vascular smooth muscle cells (rSMC) were isolated from male SD rat aorta by the explant method. DMEM medium (Sigma) containing 10% fetal bovine serum (GibcoBRL), streptomycin and penicillin was used as the proliferation medium, and subculture was carried out at 37° C. in the presence of 5% CO2. Culture was initiated after adding 100 μl of rSMC suspension in proliferation medium at a concentration of 1×10^4 cells/ml, to a 96-well plate. After 3 days, cells were rinsed twice with 100 μl of DMEM medium, the medium was exchanged with 100 μl of DMEM medium containing 0.1% albumin (starvation medium), and serum starvation was initiated. […]
Upon adding 20 μl of MTT (3-[4,5-dimethylthiazol-2-yl]-2,5-diphenyltetrazolium bromide) dissolved in DPBS to 7.5 mg/ml, incubation was continued for 4 hours. […] As an index of cell proliferation, the OD 590 nm was measured using a plate reader (EL340, BIO-TEK Instruments Inc.), and the control OD value (OD value in the absence of the test compound) minus the OD value in the presence of the test compound was divided by the control OD value minus the blank OD value (OD value without thrombin stimulation) to determine the inhibition ratio, from which the IC50 value was calculated.

SMILES	IC50 [1]	IC50 [2]	IC50 [3]
CCC(CC)CCn1ccn(CC(=O)c2cc(C(C)(C)C)c(O)c(C(C)(C)C)c2)c1=N [Example 1, 1-(3,5-Di-tert-butyl-4-hydroxy-phenyl)-2-[3-(3-ethyl-pentyl)-2-imino-2,3-dihydro-imidazol-1-yl]-ethanone hydrobromide]	74 nM	540 nM	300 nM
CC(C)(C)c1cc(C(=O)Cn2ccn(Cc3ccccc3)c2=N)cc(C(C)(C)C)c1O [Example 2, 2-(3-Benzyl-2-imino-2,3-dihydro-imidazol-1-yl)-1-(3,5-di-tert-butyl-4-hydroxy-phenyl)-ethanone hydrobromide]	250 nM	2400 nM	960 nM
